Calls of active or inactive are those of the source. The rule behind the calls is not given here.
Assays:
L6 = test: Cytotoxicity against rat L6 cells after 72 hrs by resazurin-based spectrophotometric assay; format: cell-based; conditions: L6, 72 h
Giardia intestinalis = test: Antiprotozoal activity against Giardia intestinalis G1 after 70 hrs by resazurin-based spectrophotometric assay; format: functional, organism-based; conditions: Giardia duodenalis, G1, 70 h
Entamoeba histolytica = test: Antiprotozoal activity against Entamoeba histolytica Hk-9 trophozoites after 70 hrs by resazurin-based spectrophotometric assay; format: functional, organism-based; conditions: Hk-9, 70 h
[1] = test system: Trypanosoma brucei rhodesiense; test: Antitrypanosomal activity against bloodstream form of Trypanosoma brucei rhodesiense STIB 900 after 70 hrs by resazurin-based spectrophotometric assay; format: functional, organism-based; conditions: STIB 900, 70 h
Trypanosoma cruzi = test: Antitrypanosomal activity against trypomastigote form of Trypanosoma cruzi Tulahuen C2C4 expressing Lac Z infected in rat L6 cells after 96 hrs by spectrophotometry; format: functional, organism-based; conditions: Tulahuen C2C4, L6, 96 h
Leishmania donovani = test: Antileishmanial activity against Leishmania donovani MHOM-ET-67/L82 after 72 hrs by resazurin-based spectrophotometric assay; format: functional, organism-based; conditions: MHOM-ET-67/L82, 72 h
Plasmodium falciparum = test: Antiplasmodial activity against chloroquine and pyrimethamine-resistant Plasmodium falciparum K1 assessed as inhibition of [3H]hypoxanthine incorporation incubated for 48 hrs prior to [3H] hypoxanthine addition measured after 24 hrs by liquid scintillation counting; format: functional, organism-based
[2] = Inhibition of beta-hematin formation in aqueous acetate buffer; format: functional
[3] = Selectivity ratio of IC50 for rat L6 cells to IC50 for Plasmodium falciparum K1; format: ADME, cell-based; conditions: read-out: Ratio IC50
[4] = Selectivity ratio of IC50 for rat L6 cells to IC50 for Entamoeba histolytica Hk-9; format: ADME, cell-based; conditions: read-out: Ratio IC50
[5] = Selectivity ratio of IC50 for rat L6 cells to IC50 for bloodstream form of Trypanosoma brucei rhodesiense STIB 900; format: ADME, cell-based; conditions: read-out: Ratio IC50
[6] = Selectivity ratio of IC50 for rat L6 cells to IC50 for Giardia intestinalis G1; format: ADME, cell-based; conditions: read-out: Ratio IC50
[7] = test system: Trypanosoma brucei rhodesiense; test: Antitrypanosomal activity against bloodstream form of Trypanosoma brucei rhodesiense STIB 900 after 70 hrs by resazurin-based spectrophotometric assay relative to melarsoprol; format: functional
[8] = Selectivity ratio of IC50 for rat L6 cells to IC50 for Leishmania donovani MHOM-ET-67/L82; format: ADME, cell-based; conditions: read-out: Ratio IC50

c1ccc2[nH]c(-c3ccc(OCCCOc4ccc(-c5nc6ccccc6[nH]5)cc4)cc3)nc2c1
IC50 (L6): 3.56 µM
IC50 (Giardia intestinalis): 0.74 µM
IC50 (Entamoeba histolytica): 3.37 µM
IC50 [1]: 1.5 µM
IC50 (Trypanosoma cruzi): 3.91 µM
IC50 (Leishmania donovani): 2.67 µM
IC50 (Plasmodium falciparum): 0.28 µM
inhibition [2]: Active
selectivity ratio [3]: 13
selectivity ratio [4]: 1

c1ccc2[nH]c(-c3ccc(OCCCCCCCCCCOc4ccc(-c5nc6ccccc6[nH]5)cc4)cc3)nc2c1
IC50 (L6): 46 µM
IC50 (Giardia intestinalis): 22.1 µM
IC50 (Entamoeba histolytica): 19.3 µM
IC50 [1]: 9.34 µM
IC50 (Trypanosoma cruzi): 88.5 µM
IC50 (Leishmania donovani): 124 µM
IC50 (Plasmodium falciparum): 0.18 µM
selectivity ratio [3]: 257

Cc1ncc([N+](=O)[O-])n1CCO [METRONIDAZOLE]
IC50 (Giardia intestinalis): 1.56 µM
IC50 (Entamoeba histolytica): 5.82 µM

c1cc(OCCCCCCCOc2cccc(-c3nc4ccccc4[nH]3)c2)cc(-c2nc3ccccc3[nH]2)c1
IC50 (L6): 118 µM
IC50 (Giardia intestinalis): 25.8 µM
IC50 (Entamoeba histolytica): 56.7 µM
IC50 [1]: 1.37 µM
IC50 (Trypanosoma cruzi): 1.82 µM
IC50 (Leishmania donovani): 2.69 µM
IC50 (Plasmodium falciparum): 0.41 µM
inhibition [2]: Active
selectivity ratio [3]: 291

c1cc(OCCCCCCCCCCOc2cccc(-c3nc4ccccc4[nH]3)c2)cc(-c2nc3ccccc3[nH]2)c1
IC50 (L6): 72.2 µM
IC50 (Giardia intestinalis): 172 µM
IC50 (Entamoeba histolytica): 22.2 µM
IC50 [1]: 2.08 µM
IC50 (Trypanosoma cruzi): 83.2 µM
IC50 (Leishmania donovani): 13.3 µM
IC50 (Plasmodium falciparum): 0.36 µM
selectivity ratio [3]: 202

c1cc(OCCCCCCCCOc2cccc(-c3nc4ccccc4[nH]3)c2)cc(-c2nc3ccccc3[nH]2)c1
IC50 (L6): 13.1 µM
IC50 (Giardia intestinalis): 52.4 µM
IC50 (Entamoeba histolytica): 23.5 µM
IC50 [1]: 4.5 µM
IC50 (Trypanosoma cruzi): 4.28 µM
IC50 (Leishmania donovani): 5.9 µM
IC50 (Plasmodium falciparum): 0.45 µM
selectivity ratio [3]: 29

c1cc(OCc2ccccc2COc2cccc(-c3nc4ccccc4[nH]3)c2)cc(-c2nc3ccccc3[nH]2)c1
IC50 (L6): 7.02 µM
IC50 [1]: 2.66 µM
IC50 (Trypanosoma cruzi): 2.53 µM
IC50 (Leishmania donovani): 3 µM
IC50 (Plasmodium falciparum): 0.34 µM
selectivity ratio [3]: 20

c1ccc2[nH]c(-c3ccc(OCOc4ccc(-c5nc6ccccc6[nH]5)cc4)cc3)nc2c1
IC50 (L6): 14.4 µM
IC50 [1]: 2.13 µM
IC50 (Trypanosoma cruzi): 11.3 µM
IC50 (Leishmania donovani): 16.5 µM
IC50 (Plasmodium falciparum): 0.69 µM
selectivity ratio [3]: 21

c1cc(OCCCOc2cccc(-c3nc4ccccc4[nH]3)c2)cc(-c2nc3ccccc3[nH]2)c1
IC50 (L6): 9.82 µM
IC50 (Giardia intestinalis): 56.1 µM
IC50 (Entamoeba histolytica): 78.3 µM
IC50 [1]: 8.01 µM
IC50 (Trypanosoma cruzi): 8.92 µM
IC50 (Leishmania donovani): 3.91 µM
IC50 (Plasmodium falciparum): 2.41 µM
inhibition [2]: Active
selectivity ratio [3]: 4

c1ccc2[nH]c(-c3ccc(OCc4ccc(COc5ccc(-c6nc7ccccc7[nH]6)cc5)cc4)cc3)nc2c1
IC50 (L6): 16 µM
IC50 [1]: 2.12 µM
IC50 (Trypanosoma cruzi): 26.3 µM
IC50 (Leishmania donovani): 0.8 µM
IC50 (Plasmodium falciparum): 0.23 µM
selectivity ratio [3]: 70

c1cc(OCCCCOc2cccc(-c3nc4ccccc4[nH]3)c2)cc(-c2nc3ccccc3[nH]2)c1
IC50 (L6): 21.2 µM
IC50 (Giardia intestinalis): 36 µM
IC50 (Entamoeba histolytica): 211 µM
IC50 [1]: 18.5 µM
IC50 (Trypanosoma cruzi): 23.9 µM
IC50 (Leishmania donovani): 9.99 µM
IC50 (Plasmodium falciparum): 0.23 µM
inhibition [2]: Active
selectivity ratio [3]: 92

c1ccc(COc2ccc(-c3nc4ccccc4[nH]3)cc2)c(COc2ccc(-c3nc4ccccc4[nH]3)cc2)c1
IC50 (L6): 5.89 µM
IC50 [1]: 1.32 µM
IC50 (Trypanosoma cruzi): 6.07 µM
IC50 (Leishmania donovani): 2.33 µM
IC50 (Plasmodium falciparum): 0.34 µM
selectivity ratio [3]: 17

c1ccc2[nH]c(-c3ccc(OCCCCCCOc4ccc(-c5nc6ccccc6[nH]5)cc4)cc3)nc2c1
IC50 (L6): 9.61 µM
IC50 (Giardia intestinalis): 3.58 µM
IC50 (Entamoeba histolytica): > 199 µM
IC50 [1]: 7.22 µM
IC50 (Trypanosoma cruzi): 6.05 µM
IC50 (Leishmania donovani): 6.59 µM
IC50 (Plasmodium falciparum): 0.24 µM
inhibition [2]: Active
selectivity ratio [3]: 40

c1cc(OCc2ccc(COc3cccc(-c4nc5ccccc5[nH]4)c3)cc2)cc(-c2nc3ccccc3[nH]2)c1
IC50 (L6): 10.4 µM
IC50 [1]: 24 µM
IC50 (Trypanosoma cruzi): 10.9 µM
IC50 (Leishmania donovani): 8.44 µM
IC50 (Plasmodium falciparum): 0.19 µM
selectivity ratio [3]: 54

c1ccc2[nH]c(-c3ccc(OCCCCCCCCCOc4ccc(-c5nc6ccccc6[nH]5)cc4)cc3)nc2c1
IC50 (L6): 101 µM
IC50 (Giardia intestinalis): 0.83 µM
IC50 (Entamoeba histolytica): 30.7 µM
IC50 [1]: 0.81 µM
IC50 (Trypanosoma cruzi): > 165 µM
IC50 (Leishmania donovani): 5.93 µM
IC50 (Plasmodium falciparum): 0.29 µM
selectivity ratio [3]: 344
selectivity ratio [5]: 123
selectivity ratio [6]: 123

c1ccc2[nH]c(-c3ccc(OCCOc4ccc(-c5nc6ccccc6[nH]5)cc4)cc3)nc2c1
IC50 (L6): 25.4 µM
IC50 (Giardia intestinalis): 124 µM
IC50 (Entamoeba histolytica): 191 µM
IC50 [1]: 154 µM
IC50 (Trypanosoma cruzi): 133 µM
IC50 (Leishmania donovani): > 202 µM
IC50 (Plasmodium falciparum): 2.01 µM
selectivity ratio [3]: 13

c1cc(OCCOc2cccc(-c3nc4ccccc4[nH]3)c2)cc(-c2nc3ccccc3[nH]2)c1
IC50 (L6): 5.04 µM
IC50 (Giardia intestinalis): 11.7 µM
IC50 (Entamoeba histolytica): 84 µM
IC50 [1]: 16.6 µM
IC50 (Trypanosoma cruzi): 4.68 µM
IC50 (Leishmania donovani): 24.1 µM
IC50 (Plasmodium falciparum): 2.58 µM
inhibition [2]: Active
selectivity ratio [3]: 2

O=C(Cn1ccnc1[N+](=O)[O-])NCc1ccccc1 [BENZNIDAZOLE]
IC50 (Trypanosoma cruzi): 1.13 µM

c1ccc2[nH]c(-c3ccc(OCCCCOc4ccc(-c5nc6ccccc6[nH]5)cc4)cc3)nc2c1
IC50 (L6): 7.84 µM
IC50 (Giardia intestinalis): 17.9 µM
IC50 (Entamoeba histolytica): 8.13 µM
IC50 [1]: 2.76 µM
IC50 (Trypanosoma cruzi): 5.75 µM
IC50 (Leishmania donovani): 3.25 µM
IC50 (Plasmodium falciparum): 0.44 µM
inhibition [2]: Active
selectivity ratio [3]: 18
selectivity ratio [4]: 1

c1cc(OCCCCCCCCCOc2cccc(-c3nc4ccccc4[nH]3)c2)cc(-c2nc3ccccc3[nH]2)c1
IC50 (L6): 21.9 µM
IC50 (Giardia intestinalis): 45.5 µM
IC50 (Entamoeba histolytica): 46.2 µM
IC50 [1]: 2.37 µM
IC50 (Trypanosoma cruzi): 4.98 µM
IC50 (Leishmania donovani): 6.59 µM
IC50 (Plasmodium falciparum): 0.57 µM
selectivity ratio [3]: 39

c1cc(OCCCCCOc2cccc(-c3nc4ccccc4[nH]3)c2)cc(-c2nc3ccccc3[nH]2)c1
IC50 (L6): 3.56 µM
IC50 (Giardia intestinalis): 18.5 µM
IC50 (Entamoeba histolytica): 27.8 µM
IC50 [1]: 1.33 µM
IC50 (Trypanosoma cruzi): 1.7 µM
IC50 (Leishmania donovani): 1.19 µM
IC50 (Plasmodium falciparum): 0.34 µM
selectivity ratio [3]: 10

c1ccc2[nH]c(-c3ccc(OCCCCCCCCOc4ccc(-c5nc6ccccc6[nH]5)cc4)cc3)nc2c1
IC50 (L6): 19.8 µM
IC50 (Giardia intestinalis): 10.4 µM
IC50 (Entamoeba histolytica): 65.8 µM
IC50 [1]: 39.1 µM
IC50 (Trypanosoma cruzi): 57 µM
IC50 (Leishmania donovani): 98.2 µM
IC50 (Plasmodium falciparum): 0.3 µM
selectivity ratio [3]: 67
Ratio IC50 [7]: 100

c1ccc2[nH]c(-c3ccc(OCCCCCOc4ccc(-c5nc6ccccc6[nH]5)cc4)cc3)nc2c1
IC50 (L6): 6.82 µM
IC50 (Giardia intestinalis): 0.82 µM
IC50 (Entamoeba histolytica): 22.7 µM
IC50 [1]: 1.02 µM
IC50 (Trypanosoma cruzi): 2.42 µM
IC50 (Leishmania donovani): 0.8 µM
IC50 (Plasmodium falciparum): 0.27 µM
inhibition [2]: Active
selectivity ratio [3]: 26

c1cc(COc2cccc(-c3nc4ccccc4[nH]3)c2)cc(COc2cccc(-c3nc4ccccc4[nH]3)c2)c1
IC50 (L6): 79.6 µM
IC50 [1]: 3.6 µM
IC50 (Trypanosoma cruzi): 5.99 µM
IC50 (Leishmania donovani): 4.63 µM
IC50 (Plasmodium falciparum): 0.4 µM
selectivity ratio [3]: 198

c1cc(OCOc2cccc(-c3nc4ccccc4[nH]3)c2)cc(-c2nc3ccccc3[nH]2)c1
IC50 (L6): 18.9 µM
IC50 [1]: 14.2 µM
IC50 (Trypanosoma cruzi): 11.6 µM
IC50 (Leishmania donovani): 6.19 µM
IC50 (Plasmodium falciparum): 1.69 µM
selectivity ratio [3]: 11

c1cc(COc2ccc(-c3nc4ccccc4[nH]3)cc2)cc(COc2ccc(-c3nc4ccccc4[nH]3)cc2)c1
IC50 (L6): > 172 µM
IC50 [1]: 3.56 µM
IC50 (Trypanosoma cruzi): 113 µM
IC50 (Leishmania donovani): 1.05 µM
IC50 (Plasmodium falciparum): 0.38 µM
selectivity ratio [3]: > 450
selectivity ratio [8]: > 164

c1ccc2[nH]c(-c3ccc(OCCCCCCCOc4ccc(-c5nc6ccccc6[nH]5)cc4)cc3)nc2c1
IC50 (L6): 48.4 µM
IC50 (Giardia intestinalis): 1.34 µM
IC50 (Entamoeba histolytica): 21.7 µM
IC50 [1]: 1.08 µM
IC50 (Trypanosoma cruzi): 14.8 µM
IC50 (Leishmania donovani): 1.53 µM
IC50 (Plasmodium falciparum): 0.23 µM
inhibition [2]: Active
selectivity ratio [3]: 208

c1cc(OCCCCCCOc2cccc(-c3nc4ccccc4[nH]3)c2)cc(-c2nc3ccccc3[nH]2)c1
IC50 (L6): 7.98 µM
IC50 (Giardia intestinalis): 17.7 µM
IC50 (Entamoeba histolytica): 73.7 µM
IC50 [1]: 2.37 µM
IC50 (Trypanosoma cruzi): 3.88 µM
IC50 (Leishmania donovani): 2.57 µM
IC50 (Plasmodium falciparum): 0.28 µM
selectivity ratio [3]: 29

Source: ChEMBL document CHEMBL1926599, “Bis(oxyphenylene)benzimidazoles: a novel class of anti-Plasmodium falciparum agents” (Bioorg Med Chem, 2011)
